Results reported in patent US20110021362A1, “AGENTS FOR STIMULATING ACTIVITY OF METHYL MODIFYING ENZYMES AND METHODS OF USE THEREOF” (CONSTELLATION PHARMACEUTICALS, priority 2009, published 2011).

How the values were obtained:
rPRC2 = rPRC2 (Homo sapiens, UniProt O75530+Q15910); assay: rPRC2 methylase stimulation assay (3H-SAM, FLASHplate/TopCount); type: biochemical; settings: FIG. 5, histone peptides ~1.86 μM, oligonucleosomes 14.95 nM, 45 min at 30° C.
Text: Polycomb repressive complex 2 (PRC2) is a multisubunit methylase complex that includes EZH2 (Enhancer of Zeste Homolog 2), EED, SUZ12, Rbap46, and Rbap48 subunits. Reconstituted PRC2 complexes (MW=600 kDa) were used in vitro assays to determine methylase activity in the presence of novel stimulating agents.
[…] For detection, Streptavidin FlashPlate HTS PLUS were used (High Capacity, 384 well, Perkin Elmer product # SMP410001PK).
A workflow used for high throughput assays was as follows: • 1. Preparation of assay plates using the ECHO® (Labcyte) (240 nl of DMSO or compound per well) • 2. Preparation of Mix I+II; I: 1202×15 μl; II: 1202×15.0 μl (dead volume ˜50 reactions) • Mix I • 6.0 μl 5× HMT buffer • 0.45 μl DTT 0.2M • 1.0 μl rPRC2 • 1.0 μl H3K27me3 peptide • 0.11 μl Bio/Avi-oligonuc. 1:10 • 6.44 μl water • 15.0 μl • Mix II • 1.0 μl ^3H-SAM • 14.0 μl water • 15.0 μl • 3. Adding Mix I to assay plate using the Multidrop (15 μl per well) • 4. Adding Mix II to assay plate using the Multidrop (15 μl per well) • 5. Mix content of wells in the assay plate • 6. Spin plate for 1 min at 400 RPM • 7. Incubate assay plate for 60 min at 30° C. • 8. Quench reaction by adding 30 μl of SAH [1.25 mM] to each well (mix); final conc.=568 μM • 9. […]
Stimulation of rPRC2 methylase activity was determined in the presence of unmodified H3, H3K4me3, H3K9me3, H3K27me3, H3K36me3, H3K79me3, H4K20me3, and H1.4K26me3. […]

[1] = target: recombinant Polycomb Repressive Complex 2 (rPRC2) complex, including EZH2, EED, SUZ12, RBAP46, and RBAP48 subunits (human) (UniProt Q15910); assay: cell-based or functional assay

Sequence of rPRC2 (Q15910 1-751 isoform Q15910-2): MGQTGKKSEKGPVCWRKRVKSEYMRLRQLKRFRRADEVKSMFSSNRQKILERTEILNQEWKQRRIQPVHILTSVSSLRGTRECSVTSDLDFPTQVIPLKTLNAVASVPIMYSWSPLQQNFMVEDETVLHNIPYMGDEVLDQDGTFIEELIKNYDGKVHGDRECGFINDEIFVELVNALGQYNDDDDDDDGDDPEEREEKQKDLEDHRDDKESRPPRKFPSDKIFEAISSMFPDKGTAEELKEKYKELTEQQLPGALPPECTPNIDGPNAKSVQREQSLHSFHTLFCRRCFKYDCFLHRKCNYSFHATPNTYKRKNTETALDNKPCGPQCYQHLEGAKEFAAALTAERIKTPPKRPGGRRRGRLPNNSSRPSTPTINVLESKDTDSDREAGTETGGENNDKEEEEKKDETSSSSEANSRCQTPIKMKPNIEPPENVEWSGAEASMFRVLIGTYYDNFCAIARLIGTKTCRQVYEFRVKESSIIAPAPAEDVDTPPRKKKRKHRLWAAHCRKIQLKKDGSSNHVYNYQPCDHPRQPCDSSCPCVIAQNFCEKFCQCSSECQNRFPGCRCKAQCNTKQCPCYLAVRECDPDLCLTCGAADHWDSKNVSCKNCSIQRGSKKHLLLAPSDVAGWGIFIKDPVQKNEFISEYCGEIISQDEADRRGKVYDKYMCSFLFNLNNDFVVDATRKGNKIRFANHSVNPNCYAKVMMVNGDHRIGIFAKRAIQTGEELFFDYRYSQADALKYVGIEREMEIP
Sequence of rPRC2 (O75530 whole entry): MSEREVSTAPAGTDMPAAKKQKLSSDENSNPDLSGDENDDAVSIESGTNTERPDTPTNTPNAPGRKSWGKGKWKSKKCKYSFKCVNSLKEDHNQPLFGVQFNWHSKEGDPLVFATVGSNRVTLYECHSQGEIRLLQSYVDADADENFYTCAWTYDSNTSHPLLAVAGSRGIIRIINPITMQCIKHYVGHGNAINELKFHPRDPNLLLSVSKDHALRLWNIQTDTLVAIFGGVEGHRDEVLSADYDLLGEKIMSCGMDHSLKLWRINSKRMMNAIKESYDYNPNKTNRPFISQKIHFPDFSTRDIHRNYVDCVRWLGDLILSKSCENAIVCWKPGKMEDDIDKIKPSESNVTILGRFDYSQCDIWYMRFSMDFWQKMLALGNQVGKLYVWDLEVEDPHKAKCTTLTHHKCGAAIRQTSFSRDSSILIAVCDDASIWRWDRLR
Sequence of rPRC2 (Q15022 whole entry partner): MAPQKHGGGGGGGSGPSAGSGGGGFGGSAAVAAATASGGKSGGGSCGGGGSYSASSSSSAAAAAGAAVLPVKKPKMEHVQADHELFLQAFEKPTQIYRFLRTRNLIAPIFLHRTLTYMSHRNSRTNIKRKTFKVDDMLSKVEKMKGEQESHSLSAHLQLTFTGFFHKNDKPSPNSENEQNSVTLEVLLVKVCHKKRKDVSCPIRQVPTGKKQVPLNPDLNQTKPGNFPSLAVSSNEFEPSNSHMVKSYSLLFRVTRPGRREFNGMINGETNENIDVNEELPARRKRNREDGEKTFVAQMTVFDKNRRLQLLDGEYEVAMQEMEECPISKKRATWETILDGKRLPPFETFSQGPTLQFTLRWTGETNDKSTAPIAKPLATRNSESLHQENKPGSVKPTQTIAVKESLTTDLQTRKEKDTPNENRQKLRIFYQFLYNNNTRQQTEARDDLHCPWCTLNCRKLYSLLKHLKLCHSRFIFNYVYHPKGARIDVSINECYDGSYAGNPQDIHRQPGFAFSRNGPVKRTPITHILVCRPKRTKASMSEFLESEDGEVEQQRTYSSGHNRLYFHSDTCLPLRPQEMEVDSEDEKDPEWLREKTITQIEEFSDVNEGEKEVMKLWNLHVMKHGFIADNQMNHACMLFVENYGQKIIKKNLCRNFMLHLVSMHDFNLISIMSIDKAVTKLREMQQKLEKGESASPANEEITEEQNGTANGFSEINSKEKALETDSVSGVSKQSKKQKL
Sequence of rPRC2 (Q16576 whole entry partner): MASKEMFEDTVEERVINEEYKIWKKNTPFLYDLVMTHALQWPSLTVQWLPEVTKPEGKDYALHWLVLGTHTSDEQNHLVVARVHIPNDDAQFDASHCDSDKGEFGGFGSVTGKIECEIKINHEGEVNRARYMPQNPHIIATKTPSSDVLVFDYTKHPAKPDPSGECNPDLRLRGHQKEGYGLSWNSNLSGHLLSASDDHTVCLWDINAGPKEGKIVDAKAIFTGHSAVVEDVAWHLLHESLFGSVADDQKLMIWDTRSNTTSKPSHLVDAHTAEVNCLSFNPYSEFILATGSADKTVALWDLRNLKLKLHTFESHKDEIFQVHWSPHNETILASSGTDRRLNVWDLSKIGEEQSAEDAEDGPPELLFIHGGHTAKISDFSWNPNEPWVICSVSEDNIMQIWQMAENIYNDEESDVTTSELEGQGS
Sequence of rPRC2 (Q09028 whole entry partner): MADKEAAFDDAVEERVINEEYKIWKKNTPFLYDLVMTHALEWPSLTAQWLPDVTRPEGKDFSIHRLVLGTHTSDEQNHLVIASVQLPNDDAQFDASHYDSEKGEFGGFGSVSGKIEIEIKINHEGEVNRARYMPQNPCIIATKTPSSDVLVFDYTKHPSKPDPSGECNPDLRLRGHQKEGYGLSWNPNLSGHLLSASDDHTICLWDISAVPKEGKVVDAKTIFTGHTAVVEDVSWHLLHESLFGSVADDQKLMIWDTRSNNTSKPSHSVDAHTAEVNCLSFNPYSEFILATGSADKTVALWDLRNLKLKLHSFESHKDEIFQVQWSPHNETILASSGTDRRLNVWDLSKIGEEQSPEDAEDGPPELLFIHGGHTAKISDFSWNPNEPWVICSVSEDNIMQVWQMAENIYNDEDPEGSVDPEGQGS

| stimulation of rPRC2 methylase activity toward Bio/Avi-H3 [1] [fold] | Substance | further results |
| --- | --- | --- |
| – | VKKKAR[Kme2]SAGAAKRKASG(-Biotin) [H1.4K26me3] | stimulation of rPRC2 methylase activity toward oligonucleosomes (in words) (rPRC2): Stimulation |
| – | ARTKQTAR[Kme3]STGGKAPRKQLA(-Biotin) [H3K9me3] | stimulation of rPRC2 methylase activity toward oligonucleosomes (relative to unmodified H3) (rPRC2; enzyme 12.15 nM): over 9 fold |
| 6 | Dimethylated H3K27 peptide | – |
| 4 | Monomethylated H3K27 peptide | – |
